Data published in patent publication US4760136A, “Chartreusin derivatives and salts thereof” (Ishihara Sangyo Kaisha, Ltd., priority 1984, dated 1988).
Where a name gives a salt, the structure may show the parent alone. Read-outs that look alike come from different tables or passages of the source.

Legend:
[1] = Acute toxicity, intravenous (once), ddY mice; type: in vivo; details: mouse, in vivo, formulated per Preparation Example
Source text: In Table 7 are shown acute toxicity values (LD50, mg/kg) in ddY mice in the case of intravenously administering (once) each of the compounds of this invention in the form of preparations shown in the Preparation Examples shown in Table 7.

P-388 leukemia cells = experiment: Antitumor activity: P-388 leukemia cells inoculated intraperitoneally, drug administered intravenously, BDF1 mice; type: in vivo; details: for response vs control in vivo at 20 mg/kg / response vs control in vivo at 40 mg/kg / response vs control in vivo at 80 mg/kg / response vs control in vivo at 50 mg/kg / response vs control in vivo at 60 mg/kg: Mus musculus, P388, iv, read-out: T/C (%) of MST; for response vs control in vivo at 80 mg/kg: dose f: 80 mg/kg × 3, i.v. on days 1, 5 and 9; for response vs control in vivo at 50 mg/kg: dose d: 50 mg/kg × 3, i.v. on days 1, 5 and 9; for response vs control in vivo at 60 mg/kg: dose e: 60 mg/kg × 3, i.v. on days 1, 5 and 9
Method: Into BDF1 mice were inoculated intraperitoneally P-388 leukemia cells at a rate of 1×10^6 cells/mouse, and each drug to be tested was administered intravenously on the first, fifth and ninth days after the inoculation. […] The drugs were as follows solutions prepared by adding physiological saline to each of compound Nos. 8, 9, 10, 11, 17, 34, 42, 59, 80 and 134; suspensions prepared by dispersing each of compound Nos. 41, 78, 98, 100, 130, 191, 212, 213, 215, 227 and 230 to 232 and a small amount of sodium carboxymethyl cellulose (Na.CMC) in physiological saline, […]

[2] = dose b: 20 mg/kg × 3, i.v. on days 1, 5 and 9, BDF1 mice, P-388 i.p.
[3] = dose c: 40 mg/kg × 3, i.v. on days 1, 5 and 9, BDF1 mice, P-388 i.p.

Compound	LD50 ([1]; iv)	response vs control in vivo at 40 mg/kg (P-388 leukemia cells; [3])	other results
COC1C(O)C(C)OC(OC2C(Oc3cccc4c(OC(=O)CC(C)NC(=O)C(F)(F)F)c5c(=O)oc6ccc(C)c7c(=O)oc(c34)c5c67)OC(C)C3OC(c4ccccc4)OC32)C1O (stereo not shown) [Compound No. 39]	≥ 40 mg/kg	214%	response vs control in vivo at 20 mg/kg (P-388 leukemia cells; [2]): 165%
COC1C(O)C(C)OC(OC2C(Oc3cccc4c(OC(=O)CCCCNC(=O)C(F)(F)F)c5c(=O)oc6ccc(C)c7c(=O)oc(c34)c5c67)OC(C)C3OC(c4ccccc4)OC32)C1O (stereo not shown) [Compound No. 43]	≥ 40 mg/kg		response vs control in vivo at 20 mg/kg (P-388 leukemia cells; [2]): 226%
COC1C(O)C(C)OC(OC2C(Oc3cccc4c(OC(=O)C5CC5)c5c(=O)oc6ccc(C)c7c(=O)oc(c34)c5c67)OC(C)C3OC(c4ccsc4)OC32)C1O (stereo not shown) [Compound No. 155]	≥ 40 mg/kg	183%	response vs control in vivo at 20 mg/kg (P-388 leukemia cells; [2]): 171%
COC1C(O)C(C)OC(OC2C(Oc3cccc4c(OC(=O)CN(C)C(=O)C(F)(F)F)c5c(=O)oc6ccc(C)c7c(=O)oc(c34)c5c67)OC(C)C3OC(C)(C)OC32)C1O (stereo not shown) [compound 86]	≥ 100 mg/kg		response vs control in vivo at 80 mg/kg (P-388 leukemia cells; BDF1 mice, P-388 i.p.): 136%
CCN(CC)CCC(=O)Oc1c2cccc(OC3OC(C)C4OC(c5cccc(F)c5)OC4C3OC3OC(C)C(O)C(OC)C3O)c2c2oc(=O)c3c(C)ccc4oc(=O)c1c2c43 (stereo not drawn) [Compound No. 15, 6-O-(N,N-diethyl-β-alanyl)-3',4'-O-(m-fluorobenzylidene)-chartreusin hydrochloride]	≥ 30 mg/kg		response vs control in vivo at 20 mg/kg (P-388 leukemia cells; [2]): 189%
CO[C@H]1[C@@H](O)[C@@H](C)O[C@H](O[C@H]2[C@H](Oc3cccc4c(OC(=O)c5ccc([N+](=O)[O-])cc5)c5c(=O)oc6ccc(C)c7c(=O)oc(c34)c5c67)O[C@H](C)[C@@H]3OC(c4ccccc4)O[C@@H]32)[C@@H]1O (stereo partly shown) [Compound No. 186]	≥ 80 mg/kg	176%	
COC1C(O)C(C)OC(OC2C(Oc3cccc4c(OC(=O)CCN)c5c(=O)oc6ccc(C)c7c(=O)oc(c34)c5c67)OC(C)C3OC(C)(C)OC32)C1O (stereo not drawn) [compound 42, 6-O-(β-alanyl)-3',4'-O-isopropylidene-chartreusin hydrochloride]	≥ 100 mg/kg		response vs control in vivo at 80 mg/kg (P-388 leukemia cells; BDF1 mice, P-388 i.p.): 187%
CCOCCC(=O)Oc1c2cccc(O[C@@H]3O[C@H](C)[C@@H]4OC(c5cccc(Cl)c5)O[C@@H]4[C@H]3O[C@H]3O[C@H](C)[C@H](O)[C@H](OC)[C@H]3O)c2c2oc(=O)c3c(C)ccc4oc(=O)c1c2c43 (stereo partly shown) [Compound No. 188]	≥ 60 mg/kg	193%	
COC1C(O)C(C)OC(OC2C(Oc3cccc4c(OC(=O)C(C)CN(C)C)c5c(=O)oc6ccc(C)c7c(=O)oc(c34)c5c67)OC(C)C3OC(c4ccccc4)OC32)C1O (stereo not drawn) [Compound No. 1, 6-O-(N,N-Dimethyl-β-Amino-Isobutyryl)-3',4'-O-Benzylidene-ChartreusinHydrochloride]	≥ 40 mg/kg	214%	response vs control in vivo at 20 mg/kg (P-388 leukemia cells; [2]): 138%
C=CCCC(=O)Oc1c2cccc(OC3OC(C)C4OC(C)(C)OC4C3OC3OC(C)C(O)C(OC)C3O)c2c2oc(=O)c3c(C)ccc4oc(=O)c1c2c43 (stereo not shown) [Compound No. 175]	≥ 80 mg/kg	145%	response vs control in vivo at 80 mg/kg (P-388 leukemia cells; BDF1 mice, P-388 i.p.): 208%
COC1C(O)C(C)OC(OC2C(Oc3cccc4c(OC(=O)CNC(=O)OCc5ccccc5)c5c(=O)oc6ccc(C)c7c(=O)oc(c34)c5c67)OC(C)C3OC(C)(C)OC32)C1O (stereo not shown) [compound 108, 6-O-(N-carbobenzyloxyglycyl)-3',4'-O-isopropylidene-chartreusin]	≥ 100 mg/kg		response vs control in vivo at 50 mg/kg (P-388 leukemia cells; BDF1 mice, P-388 i.p.): 163%
C/C=C(\C)C(=O)Oc1c2cccc(OC3OC(C)C4OC(c5ccccc5)OC4C3OC3OC(C)C(O)C(OC)C3O)c2c2oc(=O)c3c(C)ccc4oc(=O)c1c2c43 (stereo not shown) [compound 231]			LD50 [1]: ≥ 40 mg/kg; response vs control in vivo at 20 mg/kg (P-388 leukemia cells): 150%
C/C=C(\C)C(=O)Oc1c2cccc(OC3OC(C)C4OC(c5ccc(OC)cc5)OC4C3OC3OC(C)C(O)C(OC)C3O)c2c2oc(=O)c3c(C)ccc4oc(=O)c1c2c43 (stereo not shown) [compound 234]			LD50 [1]: ≥ 40 mg/kg; response vs control in vivo at 40 mg/kg (P-388 leukemia cells): 135%
COC1C(O)C(C)OC(OC2C(Oc3cccc4c(OC(=O)CCC(=O)c5ccccc5)c5c(=O)oc6ccc(C)c7c(=O)oc(c34)c5c67)OC(C)C3OC(C)(C)OC32)C1O (stereo not shown) [compound 224, 6-O-(3-benzoylpropionyl)-3',4'-O-isopropylidene-chartreusin]	≥ 60 mg/kg		response vs control in vivo at 50 mg/kg (P-388 leukemia cells; BDF1 mice, P-388 i.p.): 148%
COc1ccc(C2OC3C(C)OC(Oc4cccc5c(OC(=O)CCNC=O)c6c(=O)oc7ccc(C)c8c(=O)oc(c45)c6c78)C(OC4OC(C)C(O)C(OC)C4O)C3O2)cc1 (stereo not shown) [compound 95]	≥ 40 mg/kg	173%	
COC1C(O)C(C)OC(OC2C(Oc3cccc4c(OC(=O)CCC(C)=O)c5c(=O)oc6ccc(C)c7c(=O)oc(c34)c5c67)OC(C)C3OC(c4cccc(C(F)(F)F)c4)OC32)C1O (stereo not shown) [Compound No. 162]	≥ 80 mg/kg	157%	response vs control in vivo at 80 mg/kg (P-388 leukemia cells; BDF1 mice, P-388 i.p.): 243%
COC1C(O)C(C)OC(OC2C(Oc3cccc4c(OC(=O)C5CC5)c5c(=O)oc6ccc(C)c7c(=O)oc(c34)c5c67)OC(C)C3OC(CCc4ccccc4)OC32)C1O (stereo not shown) [compound 233]	≥ 60 mg/kg		response vs control in vivo at 60 mg/kg (P-388 leukemia cells; BDF1 mice, P-388 i.p.): 165%
CCCC(=O)Oc1c2cccc(OC3OC(C)C4OC(c5ccco5)OC4C3OC3OC(C)C(O)C(OC)C3O)c2c2oc(=O)c3c(C)ccc4oc(=O)c1c2c43 (stereo not shown) [compound 228]	≥ 60 mg/kg		response vs control in vivo at 60 mg/kg (P-388 leukemia cells; BDF1 mice, P-388 i.p.): 140%
COC1C(O)C(C)OC(OC2C(Oc3cccc4c(OC(=O)C(C)CNC(=O)C(F)(F)F)c5c(=O)oc6ccc(C)c7c(=O)oc(c34)c5c67)OC(C)C3OC(c4ccccc4)OC32)C1O (stereo not drawn) [Compound No. 12, 6-O-(N-Trifluoroacetyl-β-Amino-Isobutyryl)-3',4'-O-Benzylidene-Chartreusin]	≥ 40 mg/kg		response vs control in vivo at 20 mg/kg (P-388 leukemia cells; [2]): 203%; T/C (%) of MST (P-388 leukemia cells; [3]): 241%
COC1C(O)C(C)OC(OC2C(Oc3cccc4c(OC(=O)CCNC=O)c5c(=O)oc6ccc(C)c7c(=O)oc(c34)c5c67)OC(C)C3OC(c4ccccc4Cl)OC32)C1O (stereo not shown) [Compound No. 58]	≥ 80 mg/kg	162%	response vs control in vivo at 80 mg/kg (P-388 leukemia cells; BDF1 mice, P-388 i.p.): 216%
COC1C(O)C(C)OC(OC2C(Oc3cccc4c(OC(=O)CCNC(=O)c5ccccc5)c5c(=O)oc6ccc(C)c7c(=O)oc(c34)c5c67)OC(C)C3OC(C)(C)OC32)C1O (stereo not shown) [Compound No. 50]	≥ 100 mg/kg		response vs control in vivo at 60 mg/kg (P-388 leukemia cells; BDF1 mice, P-388 i.p.): 155%
COC1C(O)C(C)OC(OC2C(Oc3cccc4c(OC(=O)C(NC(=O)OCc5ccccc5)C(C)C)c5c(=O)oc6ccc(C)c7c(=O)oc(c34)c5c67)OC(C)C3OC(C)(C)OC32)C1O (stereo not shown) [compound 125]	≥ 100 mg/kg		response vs control in vivo at 50 mg/kg (P-388 leukemia cells; BDF1 mice, P-388 i.p.): 140%
CCCCCCCCCC(=O)Oc1c2cccc(OC3OC(C)C4OC(C)(C)OC4C3OC3OC(C)C(O)C(OC)C3O)c2c2oc(=O)c3c(C)ccc4oc(=O)c1c2c43 (stereo not shown) [compound 220]	≥ 60 mg/kg		response vs control in vivo at 50 mg/kg (P-388 leukemia cells; BDF1 mice, P-388 i.p.): 157%
COC1C(O)C(C)OC(OC2C(Oc3cccc4c(OC(=O)CCCNC(=O)OCc5ccccc5)c5c(=O)oc6ccc(C)c7c(=O)oc(c34)c5c67)OC(C)C3OC(C)(C)OC32)C1O (stereo not shown) [compound 109]	≥ 100 mg/kg		response vs control in vivo at 60 mg/kg (P-388 leukemia cells; BDF1 mice, P-388 i.p.): 145%
